# Where two headings read alike, the source gives them in different places.
# Experiments:
# E6 WT/E6AP [1] = molecular target: T1, E6 WT/E6AP (Human papillomavirus type 16, UniProt P03126); assay: biochemical; format: binding; conditions: WT 16E6; for inhibition at 10 µM: 10 μM compound; for inhibition at 100 µM: 100 μM compound
# E6 WT/E6AP [2] = molecular target: T1, E6 WT/E6AP; assay: biochemical; format: binding; conditions: for Emax: E6 WT, read-out: BLI maximal Inhibition (max %) E6 WT/E6AP
# E6C51S/E6AP [3] = molecular target: T2, E6C51S/E6AP (Human papillomavirus type 16, UniProt P03126, C58S); assay: BLI binding assay, E6 C51S binding to captured E6AP; design: species or system HPV-16; conditions: for loss of ability to inhibit mutant form E6-Cys51Ser (BLI), in words: FIG. 1B; for BLI maximal Inhibition (max %) E6C51S/E6AP: at 24 h, E6 C51S
# T2 sequence (P03126 whole entry C58S, looked up): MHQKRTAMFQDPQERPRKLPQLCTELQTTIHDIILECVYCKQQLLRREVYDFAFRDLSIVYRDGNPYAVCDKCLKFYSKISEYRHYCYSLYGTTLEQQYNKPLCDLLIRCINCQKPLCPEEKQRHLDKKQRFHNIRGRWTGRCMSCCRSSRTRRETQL
# E6C51S/E6AP [4] = molecular target: T2, E6C51S/E6AP; assay: E6/E6AP binding assay (amylose-bound MBP-16E6, E6AP-BAP activity), C51S 16E6; design: species or system HPV-16; conditions: for % Inhibition @ 10 μM E6C51S/E6AP: 10 μM compound; for % Inhibition @ 100 μM E6C51S/E6AP: 100 μM compound
# E6 WT/E6AP [5] = molecular target: T1, E6 WT/E6AP; assay: biochemical; format: binding; conditions: for Emax: 24 h, read-out: FP maximal inhibition (max %) E6 WT/E6AP
# RPE-1 cells = assay: Colony formation, crystal violet absorbance at 590 nm; format: cell-based; conditions: RPE-1 cells (no HPV), 14 days, normalized to DMSO, FIG. 6
# Protocol: FIG. 6 depicts colony formation capabilities of SiHa, CaSki or RPE-1 cells in the presence of the indicated concentrations of EIN-166. Fifty cells were seeded and incubated with DMSO or EIN-166. After 14 days, cells were fixed and stained with crystal violet. Stained colonies were dissolved and absorbance at 590 nm was measured. Treatments were normalized to DMSO. Data expressed as S.E.M and *P<0.05 (n=3).
# wild-type E6 = wild-type E6 (Human papillomavirus type 16, UniProt P03126); format: binding; conditions: 100 μM for 16 hr at 4° C., FIG. 1A top
# wild-type E6, sequence (P03126 8-158): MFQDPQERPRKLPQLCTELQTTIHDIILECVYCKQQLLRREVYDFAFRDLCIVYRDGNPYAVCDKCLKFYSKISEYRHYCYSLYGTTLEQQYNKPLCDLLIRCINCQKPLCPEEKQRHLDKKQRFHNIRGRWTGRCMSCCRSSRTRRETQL
# E6 Cys51Ser mutant = E6 Cys51Ser mutant (Human papillomavirus type 16, UniProt P03126, C58S); assay: Whole protein ESI mass spectrometry, adduct with E6 Cys51Ser mutant; format: binding, HPV-16; conditions: 100 μM for 16 hr at 4° C., FIG. 1A bottom
# E6 Cys51Ser mutant, sequence (P03126 8-158 C58S): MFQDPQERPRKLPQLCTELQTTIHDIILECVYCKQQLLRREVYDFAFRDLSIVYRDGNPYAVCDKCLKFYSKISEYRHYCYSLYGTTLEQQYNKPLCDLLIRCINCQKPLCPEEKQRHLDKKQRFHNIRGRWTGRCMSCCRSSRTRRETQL
# E6C51S/E6AP [6] = molecular target: T2, E6C51S/E6AP; assay: Fluorescence Polarization (FP) assay, MBP-E6 C51S with labeled peptide; format: binding, HPV-16; conditions: at 24 h
# T1 sequence (P03126 8-158): as the sequence (P03126 8-158) above
Compound,inhibition at 10 µM (E6 WT/E6AP [1]) [%],inhibition at 100 µM (E6 WT/E6AP [1]) [%],Emax (E6 WT/E6AP [2]; at 24 h) [%],% Inhibition @ 10 μM E6C51S/E6AP (E6C51S/E6AP [4]) [%],% Inhibition @ 100 μM E6C51S/E6AP (E6C51S/E6AP [4]) [%],BLI maximal Inhibition (max %) E6C51S/E6AP (E6C51S/E6AP [3]),Emax (E6 WT/E6AP [5]) [%],other results
"C=CC(=O)N1CCCN(C(=O)CN2CCc3sccc3C2c2ccccc2C)CC1 (stereo not shown) [EIN-122, 1-(4-(2-(4-(o-tolyl)-6,7-dihydrothieno[3,2-c]pyridin-5(4H)-yl)acetyl)-1,4-diazepan-1-yl)prop-2-en-1-one]",0,97 ± 1,100,,,,,"IC50 (E6 WT/E6AP [2]; at 24 h, 2 μM E6 WT pre-incubated with compound): 62.7 ± 12.1 µM; loss of ability to inhibit mutant form E6-Cys51Ser (BLI), in words (E6C51S/E6AP [3]): nearly completely lost"
"C=CC(=O)N1CCN(c2nc(CCc3ccccc3)nc3sc4c(c23)CCCC4)CC1 [EIN-132, 1-(4-(2-phenethyl-5,6,7,8-tetrahydrobenzo[4,5]thieno[2,3-d]pyrimidin-4-yl)piperazin-1-yl)prop-2-en-1-one]",3.5 ± 2,61 ± 2,100,0,19 ± 5,(max 100%),,
"C=CC(=O)N1CCN(C(=O)CN2CCc3ccccc3C2c2ccccc2C)CC1 (stereo not shown) [EIN-166, 1-(4-(2-(1-(o-tolyl)-3,4-dihydroisoquinolin-2(1H)-yl)acetyl)piperazin-1-yl)prop-2-en-1-one]",,,,,,,100,IC50 (E6 WT/E6AP [5]; FP IC50 at 24 h (μM) E6 WT/E6AP): 73.4 ± 3.7 µM; colony formation capability (RPE-1 cells): no significant changes
"COc1cccc(CCc2nc(N3CCN(C(=O)/C=C/CN(C)C)CC3)c3ccccc3n2)c1 [EIN-155, (E)-4-(dimethylamino)-1-(4-(2-(3-methoxyphenethyl)quinazolin-4-yl)piperazin-1-yl)but-2-en-1-one]",,,100,,,(max 100%),100,
"Cc1ccccc1C1c2ccsc2CCN1CC(=O)N1CCCN(C(=O)CCl)CC1 (stereo not shown) [EIN-116, 2-chloro-1-(4-(2-(4-(o-tolyl)-6,7-dihydrothieno[3,2-c]pyridin-5(4H)-yl)acetyl)-1,4-diazepan-1-yl)ethan-1-one]",29 ± 8,74 ± 3,100,5 ± 5,36 ± 11,(max 100%),,"inhibition of E6 binding to E6AP (BLI), in words (E6 WT/E6AP [2]; E6 WT with increasing concentration of compound): inhibited E6 binding to E6AP in a concentration-dependent manner; loss of ability to inhibit mutant form E6-Cys51Ser (BLI), in words (E6C51S/E6AP [3]): partly; adduct formation with wild-type E6 (wild-type E6): formed an adduct; adduct formation with E6 Cys51Ser mutant (E6 Cys51Ser mutant): not with E6 Cys51Ser mutant"
"O=C(CCl)N1CCN(c2nc(CCc3ccccc3)nc3sc4c(c23)CCCC4)CC1 [EIN-125, 2-chloro-1-(4-(2-phenethyl-5,6,7,8-tetrahydrobenzo[4,5]thieno[2,3-d]pyrimidin-4-yl)piperazin-1-yl)ethan-1-one]",54 ± 13,102 ± 10,100,32 ± 11,62 ± 1,(max 100%),,
"C=CC(=O)N1CCN(c2nc(CCc3cccc(OC)c3)nc3sc4c(c23)CCCCC4)CC1 [EIN-150, 1-(4-(2-(3-methoxyphenethyl)-6,7,8,9-tetrahydro-5H-cyclohepta[4,5]thieno[2,3-d]pyrimidin-4-yl)piperazin-1-yl)prop-2-en-1-one]",,,100,,,(max 100%),57,
"C=CC(=O)N1CCN(c2nc(CCc3cccc(OC)c3)nc3ccccc23)CC1 [EIN-154, 1-(4-(2-(3-methoxyphenethyl)quinazolin-4-yl)piperazin-1-yl)prop-2-en-1-one]",,,100,,,(max 75%),93,
"C=CC(=O)N1CCN(c2nc(-c3ccccc3)nc3ccccc23)CC1 [EIN-157, 1-(4-(2-phenylquinazolin-4-yl)piperazin-1-yl)prop-2-en-1-one]",,,100,,,(max 100%),,
"C=CC(=O)N1CCN(c2nc(CCc3cccc(OC)c3)nc3sccc23)CC1 [EIN-152, 1-(4-(2-(3-methoxyphenethyl)thieno[2,3-d]pyrimidin-4-yl)piperazin-1-yl)prop-2-en-1-one]",,,100,,,(max 60%),98,FP maximal inhibition (max %) E6C51S/E6AP (E6C51S/E6AP [6]): (max 100%)
"C=CC(=O)N1CCN(c2nc(Cc3ccc(F)cc3)nc3sc4c(c23)CCCC4)CC1 [EIN-146, 1-(4-(2-(4-fluorobenzyl)-5,6,7,8-tetrahydrobenzo[4,5]thieno[2,3-d]pyrimidin-4-yl)piperazin-1-yl)prop-2-en-1-one]",16 ± 4,30 ± 3,100,11 ± 7,15 ± 8,(max 100%),20,

# — patent US12533339B2, “Small molecule antiviral drug treatment for human papillomavirus infections” (THE TRUSTEES OF INDIANA UNIVERSITY, priority 2020, dated 2026)
